A short description of data set [1]: Release of dye from sol-gel silica gels/microspheres into demineralised water, UV-visible absorbance. The format is physicochemical. The protocol: The release of the dye molecule from the gels was performed in 3 ml of demineralised water and the evolution of the absorbance with time was monitored at a fixed wavelength λmax=485 nm using a UV-visible spectrophotometer (Lambda 40, Perkin Elmer, USA). The wavelength of 485 nm corresponds to the absorbance maximum of Orange II in the visible spectrum.
The plots of fraction of dye released versus time (FIG. 1) were obtained by dividing the actual quantity of dye released by the total mass of dye encapsulated in the gel. For the dry gel, this quantity is calculated by dividing the total quantity of dye in the gel rod by the mass of the gel and multiplying it by the mass of the gel sample used in the release experiments. For the wet gel, the fraction released was obtained experimentally from the final absorbance.
To study the influence of the temperature on the release rate, a known quantity of gel was immersed in 3 ml of demineralised water and the absorbance was monitored at a fixed wavelength of 485 nm. One sample was kept at ambient temperature (i.e. 22° C.) and two others were maintained at 37° C. and 60° C. in thermostated water baths.
The release rates of the Orange II samples were monitored at a fixed wavelength of 485 nm while the release rates of the methyl-violet samples were monitored at 584 nm (corresponding to the absorption peak of methyl-violet in the visible spectrum).

For data set [2] the following is noted: spray-dried particles produced from bohemite sols; cited from earlier work.
Data set [3] in a line: Release of cycloheximide and cis-platin from gels, UV absorbance. It is filed as physicochemical. The conditions noted are these: release from gels in 3 ml of 0.9% NaCl, 300 nm. The protocol:
The first series of samples was prepared by mixing 5.51 ml of TMOS (37 mmol), 2.67 ml of either drug solutions (148 mmol of H2O) and 6 ml of methanol (148 mmol). 4 ml aliquots of the solutions were transferred to 5 ml screw capped poly-propylene vials and placed in an oven at 60° C. to gel. Once gelation occurred the samples were aged at 60° C. for 7 days. The cap was then removed and the samples were allowed to dry for 3 days at 60° C.
A second series of samples was prepared by combining 3 ml of TMOS (20 mmol), 2.88 ml of MTMS (20 mmol) and 2.91 ml of the respective drug solution (161 mmol of H2O). These samples were processed as described above.
The release of cycloheximide from a known quantity of gel was investigated in 3 ml of demineralised water and the absorbance was monitored at a fixed wavelength, .λmax=201 nm. The release of cis-platin from a known quantity of gel was investigated in 3 ml of 0.9% NaCl and the absorbance was monitored at a fixed wavelength, λmax=300 nm.

Data set [4] in a line: Degradation of cis-platin in silica gels on aging at 60° C., examined by transmission electron microscopy. It is filed as physicochemical. The protocol:
The substitution of metal alkoxides by organically modified silicon alkoxides leads to the replacement of the hydroxyl groups at the surface of the pores by organic moieties (e.g. methyl vinyl, glycidyloxypropyl groups). This prevents interaction between the entrapped bio-molecules and the surface, and potential degradation of the active ingredient. This is illustrated by the encapsulation of cis-platin in silica gels.
A solution containing 20 ml of TMOS (134 mmol), 9.69 ml of cis-platin solution (538 mmol of water) and 21.8 ml of methanol (538 mmol) was stirred for 30 minutes. 4 ml aliquots of the solution were transferred to 5 ml screw capped poly-propylene vials and placed in an oven at 60° C. to gel. Once gelation occurred the samples were aged at 60° C. for 15 days. The cap was then removed and the samples were allowed to dry for 3 days at 60° C.
An identical procedure was used to prepare gels from a solution containing 3 ml of TMOS, 2.88 ml of MTMS and 2.91 ml of cis-platin solution.
After 3 days of aging at 60° C. the gels prepared from TMOS started to darken, ultimately yielding a black gel after 15 days aging. […] The two dry gels were subsequently examined by transmission electron microscopy using a JEOL 201 OF field emission gun microscope.

`O=S(=O)([O-])c1ccc(N=Nc2c(O)ccc3ccccc23)cc1.[Na+]` [Orange II, 4-(2-hydroxy-1-napthylazo) benzene sulfonic acid, sodium salt]: the “release rate versus MTMS content” value in data set [1] (0-50% of TMOS substituted with MTMS, W=4, D=4) is “decrease with increasing MTMS content”. The “release rate versus drying time and temperature” value in data set [1] (gels W=4, D=0, dried 1, 3 or 7 days at ambient, 60° or 104° C.) is “decrease with increasing time and temperature”. The “pH of maximum release rate” value in data set [1] (gels W=4, D=4, dye solution pH 1-11) was found to be 7. The “release rate versus pH, acid catalyst” value in data set [1] (gels W=4, D=4, synthesised using acid as a catalyst) is recorded as “increase with increasing pH”. Besides, the “release rate versus pH, base catalyst” value in data set [1] (gels W=4, D=4, synthesised using base as a catalyst) was “decrease with increasing pH”. In addition, the “release rate versus syneresis time” value in data set [1] (gels aged at 60° C. for 0-30 days) was “increase with syneresis time”. For the same compound, the “release rate of the dye versus W and D” value in data set [1] (gels with W = 2-8, D = 0-8, release in demineralised water, 485 nm) is “increase with increasing W and decreasing D”. Also, the “release rate of microspheres versus drying temperature” value in data set [1] (microspheres dried from ambient to 100° C. for 2 days) is recorded as “decreases with increasing drying temperature”. For the same compound, the “release rate versus temperature of the release media” value in data set [1] (release at 22° C., 37° C. and 60° C. in demineralised water) was “increase with increasing temperature”.
As for `CN(C)CCCN1c2ccccc2CCc2ccccc21` [imipramine], the “release of encapsulated imipramine” value in data set [2] was “released within five minutes”.
Turning to Cis Pt(NH3)2Cl2 [cis-platin], the “release rate compared with cycloheximide” value in data set [3] is reported as “greater”. In addition, in data set [4] (50% of TMOS substituted by MTMS), the “reaction of cis-platin with the matrix, MTMS substituted gels” value is recorded as “prevents any such precipitation”. Also, the “reaction of cis-platin with the matrix, silica gels” value in data set [4] (encapsulated in silica gels (TMOS)) is listed as “precipitation of metallic platinum nanoparticles”.
As for methyl violet, the “release rate compared with Orange II” value in data set [1] (gels W=4, D=4, aged 15 or 30 days at 60° C., monitored at 584 nm) is recorded as “significantly smaller”.

(Values after patent US7585521B2, “Controlled release ceramic particles, compositions thereof, processes of preparation and methods of use” (Australian Nuclear Science & Technology Organisation, priority 2000, dated 2009).)
